A short description of data set [1]: Equilibrium solubility, Uniprep method, 24 h at 37 °C. The class given is physicochemical. Here is the method:
The solubility of FLU was investigated in various aqueous and biorelevant dissolution media using the Uniprep system (Whatman, Piscataway, NJ, USA). All aqueous buffers were prepared according to the European Pharmacopoeia, while the biorelevant media were prepared according to Markopoulos et al. and Fuchs et al.. An excess amount of API was added to 3 mL of dissolution medium and the samples were incubated for 24 h at 37 °C on an orbital mixer. The samples were then filtered through the 0.45 μm polytetrafluoroethylene (PTFE) filter integrated in the Uniprep system. The filtrate was immediately diluted with mobile phase and analyzed by high-performance liquid chromatography (HPLC) (see Section 2.5). All measurements were performed at least in triplicate (n ≥ 3) and the final pH was recorded. […] Whatman, Piscataway, NJ, USA) and subsequently, after appropriate dilution with mobile phase, analyzed by HPLC-UV (Hitachi Chromaster; Hitachi Ltd., Tokyo, Japan or Spectra System HPLC, ThermoQuest Inc., San Jose, CA, USA). A BDS Hypersil C18, 5 μm, 150 × 4.6 mm (Thermo Scientific, Waltham, MA, United States) analytical column combined with a pre-column (BDS Hypersil C-18, 3μm, 10 × 4mm) was used. The mobile phase consisted of water adjusted to pH = 3.0 with trifluoroacetic acid (TFA) and acetonitrile (49.5:0.5:50% v/v). The detection wavelength was set at 247 nm, the flow rate at 1.0 mL/min, and the injection volume at 20 μL. Using this method, the retention time was approximately 6.8 min.

For another data set, the system named is CYP2C9 1*/1*. The conditions noted are these: Recombinant CYP (fu,mic = 1), cited from earlier work.
The subject of another data set is CYP2C9 2*/2*. The conditions noted are these: Recombinant CYP (fu,mic = 1), cited from earlier work.
Data set [2] concerns tooth pulp-evoked potentials (TPEP) amplitude and subjective pain intensity rating. As to conditions: cited from earlier work; for Rmax obs: 100 mg tablet; for TRmax obs: median.

Structures are written as SMILES. Values after ≈ are worked out from the molar mass of the structure shown. Where two headings read alike, the source gives them in different places.

As usually defined, the solubility is the dissolved amount per volume that the medium holds. Regarding `CC(C(=O)O)c1ccc(-c2ccccc2)c(F)c1` (stereo not drawn) [flurbiprofen], the solubility at 24 h in data set [1] (37 °C, aqueous buffer, thermodynamic from solid, Acetate buffer (pH = 4.5), pHfinal 4.7, read-out: Solubility, mean (SD)) is 101 µg/mL (≈ 414 µM); in data set [1] (37 °C, aqueous buffer, thermodynamic from solid, Phosphate buffer (pH = 6.5), pHfinal 6.1, read-out: Solubility, mean (SD)), 2020 µg/mL (≈ 8290 µM); in data set [1] (37 °C, aqueous buffer, thermodynamic from solid, Phosphate buffer (pH = 6.8), pHfinal 6.3, read-out: Solubility, mean (SD)) it was 3130 µg/mL (≈ 12800 µM); in data set [1] (37 °C, fassgf or other biorelevant, thermodynamic from solid, Level III FaSSGF (pH = 1.6), pHfinal 1.6, read-out: Solubility, mean (SD)) it was 18.5 µg/mL (≈ 75.7 µM); in data set [1] (37 °C, thermodynamic from solid, FaSSGF Level I (pH = 1.6), pHfinal 1.6, read-out: Solubility, mean (SD)) it was 18.1 µg/mL (≈ 74.1 µM); in data set [1] (37 °C, thermodynamic from solid, FeSSIF V1 Level I (pH = 5.0), pHfinal 5.1, read-out: Solubility, mean (SD)), 225 µg/mL (≈ 923 µM). The solubility at 24 h turned out to be 1950 µg/mL (≈ 8000 µM) in data set [1] (37 °C, thermodynamic from solid, Level II FaSSIF V1 (pH = 6.5), pHfinal 6.0, read-out: Solubility, mean (SD)); 1590 µg/mL (≈ 6490 µM) in data set [1] (37 °C, thermodynamic from solid, Level II FaSSIF V3 (pH = 6.7), pHfinal 5.9, read-out: Solubility, mean (SD)); 18 µg/mL (≈ 73.7 µM) in data set [1] (aqueous buffer (FaSSGF Level I), pH 1.6, minimum experimentally measured value, read-out: S0 (intrinsic solubility)). Further, in the data set on CYP2C9 1*/1*, the “CYP2C9 1*/1*-Vmax” value was 15.79 pmol/min/pmol CYP. In addition, the Km is 8.76 µM in the data set on CYP2C9 1*/1* (read-out: CYP2C9 1*/1*-Km) and 10.4 µM with CYP2C9 2*/2* (read-out: CYP2C9 2*/2*-Km). In addition, the “CYP2C9 1*/2*-Vmax” value in the data set with CYP2C9 1*/2* was determined as 11.53 pmol/min/pmol CYP. Besides, in the data set on CYP2C9 2*/2*, the “CYP2C9 2*/2*-Vmax” value is on record as 10.04 pmol/min/pmol CYP. Moreover, the Rmax obs is on record as 53.1% in data set [2] (Pain intensity reduction) and 47.3% in data set [2] (TPEP amplitude reduction). Also, the AUCE obs in data set [2] (Pain intensity reduction) and in data set [2] (TPEP amplitude reduction) was 224.2 %·h throughout. Also, the TRmax obs in data set [2] (Pain intensity reduction) and in data set [2] (TPEP amplitude reduction) was 4.00 h throughout. In addition, the “CYP2C9 1*/3*-Vmax” value in the data set on CYP2C9 1*/3* was 9.55 pmol/min/pmol CYP.
